This passage reports DC50 results from patent US20260355196A1, “INHIBITORS AND DEGRADERS OF PIP4K PROTEIN” (Larkspur Biosciences, Inc., priority 2023, published 2026).

Structures are written as SMILES.

The target in this test is T1, PIP4K2C (Homo sapiens, UniProt Q8TBX8).
T1 sequence (Q8TBX8 1-421): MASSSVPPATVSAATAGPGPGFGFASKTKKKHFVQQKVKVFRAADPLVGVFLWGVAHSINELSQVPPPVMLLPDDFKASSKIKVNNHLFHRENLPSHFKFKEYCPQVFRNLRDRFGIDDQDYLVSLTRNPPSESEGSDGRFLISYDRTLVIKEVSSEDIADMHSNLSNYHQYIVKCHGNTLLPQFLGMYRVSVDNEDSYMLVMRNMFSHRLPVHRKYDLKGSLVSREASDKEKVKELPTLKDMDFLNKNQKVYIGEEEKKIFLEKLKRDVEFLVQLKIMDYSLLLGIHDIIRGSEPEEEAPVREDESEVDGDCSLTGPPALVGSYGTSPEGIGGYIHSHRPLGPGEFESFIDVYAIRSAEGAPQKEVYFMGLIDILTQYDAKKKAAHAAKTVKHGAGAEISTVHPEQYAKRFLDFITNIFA
In words: HiBiT PIP4K2C degradation assay in MOLT-4 cells (endogenous PIP4K2C C-terminally tagged with HiBiT). Particulars: 6 hours of incubation time, rather than 24 hours; MOLT-4, top concentration 10 micromolar; read-out: HiBIT-degradation MOLT4 PIP4k2C DC50 (6 hours, marked *). The class given is cell-based. The arrangement: untagged in primary human PBMCs and monocyte-derived dendritic cells. In short, it runs like this:
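Luminescent HiBiT lytic readout of residual PIP4K2C-HiBiT (CRISPR knock-in, MOLT-4, phenol red-free RPMI-1640 + 10% FBS). Cells exposed 6 or 24 h at 37 C to compound, top 10 micromolar, 3-fold, 10 points, duplicate. Hill fit (Levenberg-Marquardt) gives DC50.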
In general terms: HiBiT is a short tag that completes a luciferase, so light tracks the accessible tagged protein.
In the case of `O=C1CCC(n2c(=O)oc3cc(N4CCC(CCN5CCN(C(=O)[C@@H]6CCC[C@H](Nc7ncc(F)c(-c8cccc(-n9ccccc9=O)c8)n7)C6)CC5)CC4)ccc32)C(=O)N1` (relative stereo) [Compound 386, 3-(6-(4-(2-(4-(cis-3-((5-fluoro-4-(3-(2-oxopyridin-1(2H)-yl)phenyl)pyrimidin-2-yl)amino)cyclohexane-1-carbonyl)piperazin-1-yl)ethyl)piperidin-1-yl)-2-oxobenzo[d]oxazol-3 (2H)-yl)piperidine-2,6-dione], the DC50 (commonly the midpoint of the concentration-degradation curve) was less than 500 nM. In the case of `O=C1CC[C@@H](Nc2ccc(C3CCN([C@H]4CC[C@H](NC(=O)[C@H]5CC[C@H](Nc6ncc(F)c(-c7cccc(-n8ccccc8=O)c7)n6)CC5)CC4)CC3)c(F)c2)C(=O)N1` (single isomer, unassigned) [Compound 418], the DC50 was less than 500 nM. Regarding `O=C1CC[C@@H](Nc2ccc(C3CCN([C@H]4CC[C@H](NC(=O)[C@H]5CC[C@H](Nc6ncc(F)c(-c7cccc(-c8ccc[nH]c8=O)c7)n6)CC5)CC4)CC3)c(F)c2)C(=O)N1` (single isomer, unassigned) [Compound 419], the DC50 was less than 500 nM. The same measure for `O=C1CC[C@@H](Nc2ccc(N3CCN([C@H]4CC[C@H](NC(=O)[C@H]5CC[C@H](Nc6ncc(F)c(-c7cccc(-n8ccccc8=O)c7)n6)CC5)CC4)CC3)c(F)c2)C(=O)N1` (single isomer, unassigned) [Compound 420]: less than 500 nM.

As to `O=C1CC[C@@H](Nc2ccc(C3CCN(CC4CCN(C(=O)[C@H]5CC[C@H](Nc6ncc(F)c(-c7cccc(-c8ccc[nH]c8=O)c7)n6)CC5)CC4)CC3)c(F)c2)C(=O)N1` (single isomer, unassigned) [Compound 421], the DC50 was less than 500 nM. Under `Cn1nc([C@H]2CCC(=O)NC2=O)c2ccc(C3CCN(CC4CCN(C(=O)[C@H]5CC[C@H](Nc6ncc(F)c(-c7cccc(-n8ccccc8=O)c7)n6)CC5)CC4)CC3)cc21` (single isomer, unassigned) [Compound 422] stands less than 500 nM. `O=C1CC[C@H](Nc2ccc(N3CCN(CC4(O)CCN(C(=O)[C@H]5CC[C@H](Nc6ncc(F)c(-c7cccc(-n8ccccc8=O)c7)n6)CC5)CC4)CC3)c(F)c2)C(=O)N1` (single isomer, unassigned) [Compound 423]: the DC50 is less than 500 nM. The same measure for `O=C1CC[C@@H](Nc2ccc(N3CCN([C@H]4CC[C@H](NC(=O)[C@H]5CC[C@H](Nc6ncc(F)c(-c7cccc(-c8ccc[nH]c8=O)c7)n6)CC5)CC4)CC3)c(F)c2)C(=O)N1` (single isomer, unassigned) [Compound 432]: less than 500 nM; for `O=C1CC[C@H](Nc2ccc(C3CCN([C@H]4CC[C@H](NC(=O)[C@H]5CC[C@H](Nc6ncc(F)c(-c7cccc(-n8ccccc8=O)c7)n6)CC5)CC4)CC3)c(F)c2)C(=O)N1` (single isomer, unassigned) [Compound 434]: less than 500 nM; for `O=C1CC[C@H](Nc2ccc(N3CCN([C@H]4CC[C@H](NC(=O)[C@H]5CC[C@H](Nc6ncc(F)c(-c7cccc(-n8ccccc8=O)c7)n6)CC5)CC4)CC3)c(F)c2)C(=O)N1` (single isomer, unassigned) [Compound 436]: less than 500 nM.

`O=C1CC[C@H](Nc2ccc(C3CCN(CC4CCN(C(=O)[C@H]5CC[C@H](Nc6ncc(F)c(-c7cccc(-c8ccc[nH]c8=O)c7)n6)CC5)CC4)CC3)c(F)c2)C(=O)N1` (single isomer, unassigned) [Compound 437]: the DC50 is less than 500 nM. Under `Cn1nc([C@@H]2CCC(=O)NC2=O)c2ccc(C3CCN(CC4CCN(C(=O)[C@H]5CC[C@H](Nc6ncc(F)c(-c7cccc(-n8ccccc8=O)c7)n6)CC5)CC4)CC3)cc21` (single isomer, unassigned) [Compound 438] stands less than 500 nM; under `O=C1CC[C@@H](Nc2ccc(N3CCN(CC4(O)CCN(C(=O)[C@H]5CC[C@H](Nc6ncc(F)c(-c7cccc(-n8ccccc8=O)c7)n6)CC5)CC4)CC3)c(F)c2)C(=O)N1` (single isomer, unassigned) [Compound 439], less than 500 nM. The same measure for `O=C1CC[C@H](Nc2ccc(N3CCN([C@H]4CC[C@H](NC(=O)[C@H]5CC[C@H](Nc6ncc(F)c(-c7cccc(-c8ccc[nH]c8=O)c7)n6)CC5)CC4)CC3)c(F)c2)C(=O)N1` (single isomer, unassigned) [Compound 441]: less than 500 nM; for `O=C1CC[C@@H](Nc2ccc(C3CCN(CC4(O)CCN(C(=O)[C@H]5CC[C@H](Nc6ncc(F)c(-c7cccc(-n8ccccc8=O)c7)n6)CC5)CC4)CC3)c(F)c2)C(=O)N1` (single isomer, unassigned) [Compound 442]: less than 500 nM; for `O=C1CC[C@H](Nc2ccc(C3CCN(CC4(O)CCN(C(=O)[C@H]5CC[C@H](Nc6ncc(F)c(-c7cccc(-n8ccccc8=O)c7)n6)CC5)CC4)CC3)c(F)c2)C(=O)N1` (single isomer, unassigned) [Compound 443]: less than 500 nM. Under `O=C1CC[C@@H](Nc2ccc(N3CCN([C@H]4CC[C@H](C(=O)N[C@H]5CC[C@H](Nc6ncc(F)c(-c7cccc(N8CCCCC8=O)c7)n6)CC5)CC4)CC3)c(F)c2)C(=O)N1` (single isomer, unassigned) [Compound 445] stands less than 500 nM; under `O=C1CC[C@@H](Nc2ccc(C3CCN(CC4CCN(C(=O)[C@H]5CC[C@H](Nc6ncc(F)c(-c7cccc(N8CCCCC8=O)c7)n6)CC5)CC4)CC3)c(F)c2)C(=O)N1` (single isomer, unassigned) [Compound 448], less than 500 nM; under `O=C1CC[C@H](Nc2ccc(C3CCN(CC4CCN(C(=O)[C@H]5CC[C@H](Nc6ncc(F)c(-c7cccc(N8CCCCC8=O)c7)n6)CC5)CC4)CC3)c(F)c2)C(=O)N1` (single isomer, unassigned) [Compound 449], less than 500 nM.

Take `O=C1CC[C@@H](Nc2ccc(C3CCN(CC4CCN(C(=O)[C@H]5CC[C@H](Nc6ncc(F)c(-c7cccc(-n8ccccc8=O)c7)n6)CC5)CC4)CC3)c(F)c2)C(=O)N1` (single isomer, unassigned) [Compound 455]: the DC50 is less than 500 nM.

For `O=C1CC[C@H](Nc2ccc(C3CCN(CC4CCN(C(=O)[C@H]5CC[C@H](Nc6ncc(F)c(-c7cccc(-n8ccccc8=O)c7)n6)CC5)CC4)CC3)c(F)c2)C(=O)N1` (single isomer, unassigned) [Compound 456], the DC50 is less than 500 nM.

In the case of `O=C1CC[C@H](Nc2ccc(N3CCN([C@H]4CC[C@H](C(=O)N[C@H]5CC[C@H](Nc6ncc(F)c(-c7cccc(N8CCCCC8=O)c7)n6)CC5)CC4)CC3)c(F)c2)C(=O)N1` (single isomer, unassigned) [Compound 458], the DC50 was less than 500 nM.

On to `O=C1CC[C@@H](Nc2ccc(N3CCN(C[C@H]4CC[C@H](CNC(=O)[C@H]5CC[C@H](Nc6ncc(F)c(-c7cccc(-n8ccccc8=O)c7)n6)CC5)CC4)CC3)c(F)c2)C(=O)N1` (single isomer, unassigned) [Compound 459], for which the DC50 is less than 500 nM. Turning to `O=C1CC[C@H](Nc2ccc(N3CCN(C[C@H]4CC[C@H](CNC(=O)[C@H]5CC[C@H](Nc6ncc(F)c(-c7cccc(-n8ccccc8=O)c7)n6)CC5)CC4)CC3)c(F)c2)C(=O)N1` (single isomer, unassigned) [Compound 460], the DC50 is less than 500 nM. For the molecule `O=C1CC[C@@H](Nc2ccc(N3CCN([C@H]4CC[C@H](C(=O)N[C@H]5CC[C@H](Nc6ncc(F)c(-c7cccc(N8CCCOC8=O)c7)n6)CC5)CC4)CC3)c(F)c2)C(=O)N1` (single isomer, unassigned) [Compound 461], the DC50 was less than 500 nM. Under `O=C1CC[C@H](Nc2ccc(N3CCN([C@H]4CC[C@H](C(=O)N[C@H]5CC[C@H](Nc6ncc(F)c(-c7cccc(N8CCCOC8=O)c7)n6)CC5)CC4)CC3)c(F)c2)C(=O)N1` (single isomer, unassigned) [Compound 462] stands less than 500 nM; under `O=C1CCC(Nc2ccc(C3CCN([C@H]4CC[C@H](C(=O)N[C@H]5CC[C@H](Nc6ncc(F)c(-c7cccc(N8CCCCC8=O)c7)n6)CC5)CC4)CC3)c(F)c2)C(=O)N1` (single isomer, unassigned) [Compound 592], less than 500 nM; under `O=C1CC[C@@H](Nc2ccc(C3CCN([C@H]4CC[C@H](C(=O)N[C@H]5CC[C@H](Nc6ncc(F)c(-c7cccc(N8CCCCC8=O)c7)n6)CC5)CC4)CC3)c(F)c2)C(=O)N1` (single isomer, unassigned) [Compound 593], less than 500 nM. As for `O=C1CC[C@H](Nc2ccc(N3CCC(N4CCC(O)(C(=O)N[C@H]5CC[C@H](Nc6ncc(F)c(-c7cccc(-n8ccccc8=O)c7)n6)CC5)CC4)CC3)c(F)c2)C(=O)N1` (single isomer, unassigned) [Compound 594], the DC50 was less than 500 nM. The same measure for `O=C1CC[C@@H](Nc2ccc(N3CCC(N4CCC(O)(C(=O)N[C@H]5CC[C@H](Nc6ncc(F)c(-c7cccc(-n8ccccc8=O)c7)n6)CC5)CC4)CC3)c(F)c2)C(=O)N1` (single isomer, unassigned) [Compound 595]: less than 500 nM; for `O=C1CC[C@H](Nc2ccc(C3CCN(CC4CCN(C(=O)[C@H]5CC[C@H](Nc6ncc(F)c(-c7cccc(N8CCCOC8=O)c7)n6)CC5)CC4)CC3)c(F)c2)C(=O)N1` (single isomer, unassigned) [Compound 600]: less than 500 nM.
